# Results taken from patent US10653698B2, “Methods of improving myocardial performance in Fontan patients using udenafil compositions” (priority 2014, dated 2020).
# Tested on: adolescents with single ventricle physiology after Fontan palliation
# Experiment: Vascular function testing (EndoPAT pulse amplitude tonometry, lnRHI and other EndoPAT indices)
# Type: in vivo, human
# Conditions: for Natural Log of Reactive Hyperemia Index, Baseline measurement: day 1; for Natural Log of Reactive Hyperemia Index, Follow-up measurement: post-medication, day 5
# Text: Pulse amplitude tonometry (PAT), a FDA-approved method for assessing vascular function, is increasingly being used as an alternative measure of endothelium-dependent dilation in response to reactive hyperemia and flow-mediated dilation (FMD). The PAT device records digital pulse wave amplitude (PWA) using fingertip plethysmography. PWA can be measured continuously during three phases: a quiet baseline period, 5-min forearm occlusion, and reactive hyperemia following cuff release. Unlike FMD, PAT testing is not dependent upon a highly skilled technician and post-test analysis is largely automated. Most importantly, at least one longitudinal study has shown that PAT measures of endothelial function predict CVD events over a 6-year follow-up period. These significant advantages may make PAT testing suitable for clinical practice if prognostic significance and reliability can be verified.
# The primary outcome of vascular function was determined according to an endothelial pulse amplitude tonometry (PAT) index as determined by the EndoPAT® device (Itamar Medical, Caesarea, Israel).
# Table 16 summarizes the results for the key outcome from the vascular function testing—natural log of Reactive Hyperemia Index (lnRHI) by treatment group. Out of the 30 subjects enrolled in the treatment arms of the trial, 27 subjects had paired measurements with an acceptable quality (with QC score equal to 3 (the best) or 2). The structure of the table is similar to the one for exercise variables.
# Table 17 reports change scores only for secondary EndoPAT outcomes (RHI, Framingham RHI etc; top panel) and other EndoPAT indices.
structure (smiles),measurement,setting,value
CCCOc1ccc(S(=O)(=O)NCCC2CCCN2C)cc1-c1nc2c(CCC)nn(C)c2c(=O)[nH]1 (stereo not drawn) [udenafil],"Natural Log of Reactive Hyperemia Index, Difference, FU − BL",37.5 mg daily,0.03 ± 0.47
same,"AUC2max_o: Area under the curve to Max-Occlusion (ratio to baseline), FU − BL","37.5 mg daily, N 6",−0.23 ± 2.74
same,"AUC2max_oc: Area under the curve to Max-Occlusion/Control, FU − BL","37.5 mg daily, N 6",−0.93 ± 4.37
same,"AUCall_o: Area under the curve all-Occlusion (ratio to baseline), FU − BL","37.5 mg daily, N 6",−0.01 ± 2.73
same,"AUCall_oc: Area under the curve all-Occlusion/Control, FU − BL","37.5 mg daily, N 6",−1.34 ± 6.42
same,"Avg2Max_o: average upto max-Occlusion (ratio to baseline), FU − BL","37.5 mg daily, N 6",−0.12 ± 0.28
same,"Avg2Max_oc: average up to max-Occlusion/Control, FU − BL","37.5 mg daily, N 6",−0.35 ± 1.01
same,"Avgall_o: average all-Occlusion (ratio to baseline), FU − BL","37.5 mg daily, N 6",0.02 ± 0.27
same,"Avgall_oc: average all -Occlusion/Control, FU − BL","37.5 mg daily, N 6",−0.10 ± 0.66
same,"Framingham RHI, FU − BL","37.5 mg daily, N 6",−0.00 ± 0.58
same,"Reactive Hyperemia Index, FU − BL","37.5 mg daily, N 6",0.03 ± 0.84
same,"Natural Log of Reactive Hyperemia Index, Baseline measurement",37.5 mg daily,0.48 ± 0.31
same,"Natural Log of Reactive Hyperemia Index, Follow-up measurement",37.5 mg daily,0.51 ± 0.26
same,"Natural Log of Reactive Hyperemia Index, Difference, FU − BL",37.5 mg twice daily,−0.07 ± 0.17
same,"AUC2max_o: Area under the curve to Max-Occlusion (ratio to baseline), FU − BL","37.5 mg twice daily, N 6",0.09 ± 1.45
same,"AUC2max_oc: Area under the curve to Max-Occlusion/Control, FU − BL","37.5 mg twice daily, N 6",−1.19 ± 1.84
same,"AUCall_o: Area under the curve all-Occlusion (ratio to baseline), FU − BL","37.5 mg twice daily, N 6",−0.69 ± 2.17
same,"AUCall_oc: Area under the curve all-Occlusion/Control, FU − BL","37.5 mg twice daily, N 6",−1.19 ± 2.00
same,"Avg2Max_o: average upto max-Occlusion (ratio to baseline), FU − BL","37.5 mg twice daily, N 6",0.15 ± 0.19
same,"Avg2Max_oc: average up to max-Occlusion/Control, FU − BL","37.5 mg twice daily, N 6",−0.33 ± 0.26
same,"Avgall_o: average all-Occlusion (ratio to baseline), FU − BL","37.5 mg twice daily, N 6",−0.08 ± 0.24
same,"Avgall_oc: average all -Occlusion/Control, FU − BL","37.5 mg twice daily, N 6",−0.13 ± 0.22
same,"Framingham RHI, FU − BL","37.5 mg twice daily, N 6",−0.17 ± 0.19
same,"Reactive Hyperemia Index, FU − BL","37.5 mg twice daily, N 6",−0.12 ± 0.30
same,"Natural Log of Reactive Hyperemia Index, Baseline measurement",37.5 mg twice daily,0.60 ± 0.30
same,"Natural Log of Reactive Hyperemia Index, Follow-up measurement",37.5 mg twice daily,0.53 ± 0.29
same,"Natural Log of Reactive Hyperemia Index, Difference, FU − BL",87.5 mg daily,0.07 ± 0.22
same,"AUC2max_o: Area under the curve to Max-Occlusion (ratio to baseline), FU − BL","87.5 mg daily, N 5",−1.26 ± 4.89
same,"AUC2max_oc: Area under the curve to Max-Occlusion/Control, FU − BL","87.5 mg daily, N 5",3.03 ± 2.49
same,"AUCall_o: Area under the curve all-Occlusion (ratio to baseline), FU − BL","87.5 mg daily, N 5",1.66 ± 5.96
same,"AUCall_oc: Area under the curve all-Occlusion/Control, FU − BL","87.5 mg daily, N 5",1.88 ± 3.25
same,"Avg2Max_o: average upto max-Occlusion (ratio to baseline), FU − BL","87.5 mg daily, N 5",0.10 ± 0.69
same,"Avg2Max_oc: average up to max-Occlusion/Control, FU − BL","87.5 mg daily, N 5",0.17 ± 0.43
same,"Avgall_o: average all-Occlusion (ratio to baseline), FU − BL","87.5 mg daily, N 5",0.14 ± 0.67
same,"Avgall_oc: average all -Occlusion/Control, FU − BL","87.5 mg daily, N 5",0.16 ± 0.36
same,"Framingham RHI, FU − BL","87.5 mg daily, N 5",0.04 ± 0.36
same,"Reactive Hyperemia Index, FU − BL","87.5 mg daily, N 5",0.12 ± 0.34
same,"Natural Log of Reactive Hyperemia Index, Baseline measurement",87.5 mg daily,0.41 ± 0.25
same,"Natural Log of Reactive Hyperemia Index, Follow-up measurement",87.5 mg daily,0.45 ± 0.31
same,"Natural Log of Reactive Hyperemia Index, Difference, FU − BL",87.5 mg twice daily,−0.03 ± 0.20
same,"AUC2max_o: Area under the curve to Max-Occlusion (ratio to baseline), FU − BL","87.5 mg twice daily, N 4",−0.51 ± 1.64
same,"AUC2max_oc: Area under the curve to Max-Occlusion/Control, FU − BL","87.5 mg twice daily, N 4",0.16 ± 1.08
same,"AUCall_o: Area under the curve all-Occlusion (ratio to baseline), FU − BL","87.5 mg twice daily, N 4",0.60 ± 2.95
same,"AUCall_oc: Area under the curve all-Occlusion/Control, FU − BL","87.5 mg twice daily, N 4",0.17 ± 4.30
same,"Avg2Max_o: average upto max-Occlusion (ratio to baseline), FU − BL","87.5 mg twice daily, N 4",0.03 ± 0.36
same,"Avg2Max_oc: average up to max-Occlusion/Control, FU − BL","87.5 mg twice daily, N 4",0.24 ± 0.23
same,"Avgall_o: average all-Occlusion (ratio to baseline), FU − BL","87.5 mg twice daily, N 4",0.09 ± 0.33
same,"Avgall_oc: average all -Occlusion/Control, FU − BL","87.5 mg twice daily, N 4",0.05 ± 0.45
same,"Framingham RHI, FU − BL","87.5 mg twice daily, N 4",0.00 ± 0.20
same,"Reactive Hyperemia Index, FU − BL","87.5 mg twice daily, N 4",0.01 ± 0.38
same,"Natural Log of Reactive Hyperemia Index, Baseline measurement",87.5 mg twice daily,0.49 ± 0.12
same,"Natural Log of Reactive Hyperemia Index, Follow-up measurement",87.5 mg twice daily,0.40 ± 0.29
same,"Natural Log of Reactive Hyperemia Index, Difference, FU − BL",125 mg daily,−0.10 ± 0.38
same,"AUC2max_o: Area under the curve to Max-Occlusion (ratio to baseline), FU − BL","125 mg daily, N 6",0.37 ± 2.71
